From US20060029684A1, “Synergistic treatment of DNA viral infections” (Henderson Morley Research and Development Limited, priority 1999, published 2006)
Where two headings read alike, the source gives them in different places.

Key:
[1] = test system: type 2 herpes simplex virus strain 3345; assay: Inhibition of HSV2 replication in infected African green monkey kidney cells (Example 1, Table 1); format: cell-based; details: for inhibition of virus replication: Lithium 0 mN
Excerpt: Compositions were applied to African green monkey kidney and […] cells infected with type 2 herpes simplex virus strains 3345 and 180 at low, intermediate and high multiplicities of infection. MOI inhibition of virus replication was scored as follows: […]

[2] = test system: Type 2 herpes simplex strain 3345; assay: Herpes simplex virus bioassay in Vero cells, inhibition of hsv2 (Example 2); format: cell-based; details: Human alphaherpesvirus 2, Vero
Experimental: . Culture and assay methods follow those described by Lennette and Schmidt (1979) for herpes simplex virus and Vero cells with minor modifications.
Type 1 herpes simplex strain HFEM is a derivative of the Rockerfeller strain HF (Wildy 1955), and Type 2 herpes simplex strain 3345, a penile isolate (Skinner et al 1977) were used as prototype strains. These prototypes were stored at −80° C. until needed.
African Green Monkey kidney cells (vero) were obtained from the National Institute of Biological Standards and Control UK and were used as the only cell line for all experiments in this example.
Cells and viruses were maintained on Glasgows modified medium supplemented with 10% foetal bovine serum.

## NS(=O)(=O)c1cc(C(=O)O)c(NCc2ccco2)cc1Cl [Frusemide, 4-chloro-N-furfuryl-5-sulfamoylanthranilic acid]
[1]; HIGH MOI HSV2, Frusemide 0.5 mg/ml
  inhibition of virus replication: − (No inhibition)
[1]; HIGH MOI HSV2, Frusemide 1.0 mg/ml
  inhibition of virus replication: − (No inhibition)
[1]; HIGH MOI HSV2, Frusemide 2.0 mg/ml
  inhibition of virus replication: − (No inhibition)
[1]; Human alphaherpesvirus 2
  inhibition at 500 µg/mL: 0%
  inhibition at 1000 µg/mL: 0%
  inhibition at 2000 µg/mL: 0%
[1]; LOW MOI HSV2, Frusemide 0.5 mg/ml
  inhibition of virus replication: − (No inhibition)
[1]; LOW MOI HSV2, Frusemide 1.0 mg/ml
  inhibition of virus replication: − (No inhibition)
[1]; LOW MOI HSV2, Frusemide 2.0 mg/ml
  inhibition of virus replication: − (No inhibition)
[1]; frusemide 2 mg/ml, all multiplicities of infection
  inhibition of hsv2 replication: no inhibition
[2]; read-out: Inhibition of hsv2, Effect of frusemide alone, Multiplicity of infection High, frusemide (1 mg/ml)
  inhibition at 1000 µg/mL: 0%
[2]; read-out: Inhibition of hsv2, Effect of frusemide alone, Multiplicity of infection Low, frusemide (1 mg/ml)
  inhibition at 1000 µg/mL: 40%
[2]; read-out: Inhibition of hsv2, Effect of frusemide alone, Multiplicity of infection Medium, frusemide (1 mg/ml)
  inhibition at 1000 µg/mL: 40%
